# Several values for one entry are separate records, joined by “and”; a condition that tells them apart may be missing. Equal entries are not always repeated.
# Test system: 485368-065-R3-J5-PDC spheroids with HUVEC/MSC, viability
# Assay: Anticancer human tumor 485368-065-R3-J5-PDC patient-derived pancreatic carcinoma cell line growth inhibition [RAS]
# Details: for viability, T/C: stronger effect = lower value
# In short: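 Multi-cell-type spheroids: tumor cells plus HUVEC endothelial cells and mesenchymal stem cells. RAS-pathway inhibitors were combined with targeted agents, each dosed in half-log steps down from clinical Cmax, or from 10 microM when Cmax was unknown.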
# [1] = curve of first compound, second compound 0.0316 µM
# [2] = curve of first compound, second compound 0.1 µM
# [3] = curve of first compound, second compound 0.316 µM
# [4] = curve of first compound, second compound 1 µM
# [5] = curve of first compound, second compound 3.16 µM
# [6] = curve of first compound, second compound 10 µM
# [7] = second compound 0.0316 µM, first compound 0.00316 µM
# [8] = second compound 0.0316 µM, first compound 0.01 µM
# [9] = second compound 0.0316 µM, first compound 0.0316 µM
# [10] = second compound 0.0316 µM, first compound 0.1 µM
# [11] = second compound 0.0316 µM, first compound 0.316 µM
# [12] = second compound 0.0316 µM, first compound 1 µM
# [13] = second compound 0.1 µM, first compound 0.00316 µM
# [14] = second compound 0.1 µM, first compound 0.01 µM
# [15] = second compound 0.1 µM, first compound 0.0316 µM
# [16] = second compound 0.1 µM, first compound 0.1 µM
# [17] = second compound 0.1 µM, first compound 0.316 µM
# [18] = second compound 0.1 µM, first compound 1 µM
# [19] = second compound 0.316 µM, first compound 0.00316 µM
# [20] = second compound 0.316 µM, first compound 0.01 µM
# [21] = second compound 0.316 µM, first compound 0.0316 µM
# [22] = second compound 0.316 µM, first compound 0.1 µM
# [23] = second compound 0.316 µM, first compound 0.316 µM
# [24] = second compound 0.316 µM, first compound 1 µM
# [25] = second compound 1 µM, first compound 0.00316 µM
# [26] = second compound 1 µM, first compound 0.01 µM
# [27] = second compound 1 µM, first compound 0.0316 µM
# [28] = second compound 1 µM, first compound 0.1 µM
# [29] = second compound 1 µM, first compound 0.316 µM
# [30] = second compound 1 µM, first compound 1 µM
# [31] = second compound 3.16 µM, first compound 0.00316 µM
# [32] = second compound 3.16 µM, first compound 0.01 µM
# [33] = second compound 3.16 µM, first compound 0.0316 µM
# [34] = second compound 3.16 µM, first compound 0.1 µM
# [35] = second compound 3.16 µM, first compound 0.316 µM
# [36] = second compound 3.16 µM, first compound 1 µM
# [37] = second compound 10 µM, first compound 0.00316 µM
# [38] = second compound 10 µM, first compound 0.01 µM
# [39] = second compound 10 µM, first compound 0.0316 µM
# [40] = second compound 10 µM, first compound 0.1 µM
# [41] = second compound 10 µM, first compound 0.316 µM
# [42] = second compound 10 µM, first compound 1 µM
# 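Note: spheroids exposed to agents for seven days before readout.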
smiles,measurement,setting,value
C=CC(=O)N1CCN(c2nc(OCC3CCCN3C)nc3c(F)c(-c4nc(N)cc(C)c4C(F)(F)F)c(Cl)cc23)C(C)C1 (configuration not stated) + C#Cc1c(F)ccc2cc(O)cc(-c3ncc4c(N5CC6CCC(C5)N6)nc(OCC56CCCN5CC(F)C6)nc4c3F)c12,IC50,[1],> 1000 nM
same,IC50,[2],> 1000 nM
same,IC50,[3],> 1000 nM
same,IC50,[4],> 1000 nM
same,IC50,[5],794 nM
same,IC50,[6],< 3.16 nM
same,"viability, T/C",[7],101%
same,"viability, T/C",[8],95.6%
same,"viability, T/C",[9],112%
same,"viability, T/C",[10],106%
same,"viability, T/C",[11],100%
same,"viability, T/C",[12],107%
same,"viability, T/C",[13],102%
same,"viability, T/C",[14],100%
same,"viability, T/C",[15],106%
same,"viability, T/C",[16],101%
same,"viability, T/C",[17],117%
same,"viability, T/C",[18],110%
same,"viability, T/C",[19],105%
same,"viability, T/C",[20],104%
same,"viability, T/C",[21],93.6%
same,"viability, T/C",[22],98.5%
same,"viability, T/C",[23],103%
same,"viability, T/C",[24],101%
same,"viability, T/C",[25],94.3%
same,"viability, T/C",[26],95.9%
same,"viability, T/C",[27],98.7%
same,"viability, T/C",[28],97.6%
same,"viability, T/C",[29],94.8%
same,"viability, T/C",[30],72.1%
same,"viability, T/C",[31],89.7%
same,"viability, T/C",[32],83.2%
same,"viability, T/C",[33],81.7%
same,"viability, T/C",[34],72.3%
same,"viability, T/C",[35],71.2%
same,"viability, T/C",[36],44.4%
same,"viability, T/C",[37],38.1%
same,"viability, T/C",[38],40.3%
same,"viability, T/C",[39],38.3%
same,"viability, T/C",[40],41.7%
same,"viability, T/C",[41],36.5%
same,"viability, T/C",[42],36.6%
CCC(CC)c1cc(NC2CCC(N)C2)n2nccc2n1 (configuration not stated),"viability, T/C",compound 0.0316 µM,106% [middle of 4 runs]
same,"viability, T/C",compound 0.1 µM,99.2% [middle of 4 runs]
same,"viability, T/C",compound 0.316 µM,115% and 105% (2×) and 109%
same,"viability, T/C",compound 3.16 µM,4.93% [middle of 4 runs]
same,"viability, T/C",compound 10 µM,8.61% [middle of 4 runs]
same,IC50,curve of compound,1.96 µM [middle of 4 runs]
CC1(O)CCCC1n1c(=O)c(C(F)F)cc2cnc(NC3CCN(S(C)(=O)=O)CC3)nc21 (configuration not stated),"viability, T/C",compound 0.0316 µM,104% [middle of 4 runs]
same,"viability, T/C",compound 0.1 µM,74% [middle of 4 runs]
same,"viability, T/C",compound 0.316 µM,50.7% [middle of 4 runs]
same,"viability, T/C",compound 1 µM,42.3% (2×) and 46.1% and 41.8%
same,"viability, T/C",compound 3.16 µM,47.1% [middle of 4 runs]
same,"viability, T/C",compound 10 µM,19.6% [middle of 4 runs]
same,IC50,curve of compound,469 nM [middle of 4 runs]
CC1(C)CCC(Nc2ncc(C(F)(F)F)c(-c3c[nH]c4c(P(C)(C)=O)c(C#N)ccc34)n2)CN1 (configuration not stated),"viability, T/C",compound 0.03 µM,41.7% [middle of 4 runs]
same,"viability, T/C",compound 0.0949 µM,38.6% [middle of 4 runs]
same,"viability, T/C",compound 0.3 µM,39.7% [middle of 4 runs]
C=CC(=O)Nc1cc(Nc2nccc(-c3cn(C)c4ccccc34)n2)c(OC)cc1N(C)CCN(C)C + C#Cc1c(F)ccc2cc(O)cc(-c3ncc4c(N5CC6CCC(C5)N6)nc(OCC56CCCN5CC(F)C6)nc4c3F)c12,IC50,[1],> 1000 nM
same,IC50,[2],> 1000 nM
same,IC50,[3],> 1000 nM
same,IC50,[4],> 1000 nM
same,IC50,[5],> 1000 nM
same,IC50,[6],< 3.16 nM
same,"viability, T/C",[7],103%
same,"viability, T/C",[8],101%
same,"viability, T/C",[9],106%
same,"viability, T/C",[10],104%
same,"viability, T/C",[11],101%
same,"viability, T/C",[12],89.7%
same,"viability, T/C",[13],97%
same,"viability, T/C",[14],95.8%
same,"viability, T/C",[15],95.8%
same,"viability, T/C",[16],108%
same,"viability, T/C",[17],108%
same,"viability, T/C",[18],96.2%
same,"viability, T/C",[19],107%
same,"viability, T/C",[20],97.3%
same,"viability, T/C",[21],96.1%
same,"viability, T/C",[22],103%
same,"viability, T/C",[23],101%
same,"viability, T/C",[24],85.5%
same,"viability, T/C",[25],106%
same,"viability, T/C",[26],98.9%
same,"viability, T/C",[27],100%
same,"viability, T/C",[28],97.3%
same,"viability, T/C",[29],83.3%
same,"viability, T/C",[30],74.6%
same,"viability, T/C",[31],78%
same,"viability, T/C",[32],83.6%
same,"viability, T/C",[33],72.4%
same,"viability, T/C",[34],67.6%
same,"viability, T/C",[35],63.3%
same,"viability, T/C",[36],49.8%
same,"viability, T/C",[37],48%
same,"viability, T/C",[38],43.7%
same,"viability, T/C",[39],37%
same,"viability, T/C",[40],37.3%
same,"viability, T/C",[41],28.6%
same,"viability, T/C",[42],30.1%
CC(C)n1nc(-c2ccc3oc(N)nc3c2)c2c(N)ncnc21 + CCn1c(-c2cc(N3CCN(C)CC3)cnc2C(C)OC)c2c3cc(ccc31)-c1csc(n1)CC(NC(=O)C1CC1C)C(=O)N1CCCC(N1)C(=O)OCC(C)(C)C2,IC50,"curve of first compound, second compound 0.000949 µM",< 0.316 nM
same,IC50,"curve of first compound, second compound 0.003 µM",< 0.316 nM
same,IC50,"curve of first compound, second compound 0.00949 µM",< 0.316 nM
same,IC50,"curve of first compound, second compound 0.03 µM",< 0.316 nM
same,IC50,"curve of first compound, second compound 0.0949 µM",< 0.316 nM
same,IC50,"curve of first compound, second compound 0.3 µM",< 0.316 nM
same,"viability, T/C","second compound 0.000949 µM, first compound 0.000316 µM",37.1%
same,"viability, T/C","second compound 0.000949 µM, first compound 0.001 µM",33.2%
same,"viability, T/C","second compound 0.000949 µM, first compound 0.00316 µM",25.4%
same,"viability, T/C","second compound 0.000949 µM, first compound 0.01 µM",25.5%
same,"viability, T/C","second compound 0.000949 µM, first compound 0.0316 µM",16.9%
same,"viability, T/C","second compound 0.000949 µM, first compound 0.1 µM",14.4%
same,"viability, T/C","second compound 0.003 µM, first compound 0.000316 µM",23.3%
same,"viability, T/C","second compound 0.003 µM, first compound 0.001 µM",20.4%
same,"viability, T/C","second compound 0.003 µM, first compound 0.00316 µM",18.3%
same,"viability, T/C","second compound 0.003 µM, first compound 0.01 µM",15.1%
same,"viability, T/C","second compound 0.003 µM, first compound 0.0316 µM",11.4%
same,"viability, T/C","second compound 0.003 µM, first compound 0.1 µM",8.13%
same,"viability, T/C","second compound 0.00949 µM, first compound 0.000316 µM",19.9%
same,"viability, T/C","second compound 0.00949 µM, first compound 0.001 µM",17.6%
same,"viability, T/C","second compound 0.00949 µM, first compound 0.00316 µM",15.4%
same,"viability, T/C","second compound 0.00949 µM, first compound 0.01 µM",11.2%
same,"viability, T/C","second compound 0.00949 µM, first compound 0.0316 µM",7.74%
same,"viability, T/C","second compound 0.00949 µM, first compound 0.1 µM",7.71%
same,"viability, T/C","second compound 0.03 µM, first compound 0.000316 µM",13.6%
same,"viability, T/C","second compound 0.03 µM, first compound 0.001 µM",12.3%
same,"viability, T/C","second compound 0.03 µM, first compound 0.00316 µM",11.5%
same,"viability, T/C","second compound 0.03 µM, first compound 0.01 µM",10.1%
same,"viability, T/C","second compound 0.03 µM, first compound 0.0316 µM",8.37%
same,"viability, T/C","second compound 0.03 µM, first compound 0.1 µM",6.86%
same,"viability, T/C","second compound 0.0949 µM, first compound 0.000316 µM",9.34%
same,"viability, T/C","second compound 0.0949 µM, first compound 0.001 µM",9.41%
same,"viability, T/C","second compound 0.0949 µM, first compound 0.00316 µM",9.4%
same,"viability, T/C","second compound 0.0949 µM, first compound 0.01 µM",8.96%
same,"viability, T/C","second compound 0.0949 µM, first compound 0.0316 µM",8.01%
same,"viability, T/C","second compound 0.0949 µM, first compound 0.1 µM",7.66%
same,"viability, T/C","second compound 0.3 µM, first compound 0.000316 µM",8.85%
same,"viability, T/C","second compound 0.3 µM, first compound 0.001 µM",9.23%
same,"viability, T/C","second compound 0.3 µM, first compound 0.00316 µM",9.13%
same,"viability, T/C","second compound 0.3 µM, first compound 0.01 µM",7.72%
same,"viability, T/C","second compound 0.3 µM, first compound 0.0316 µM",8.58%
same,"viability, T/C","second compound 0.3 µM, first compound 0.1 µM",6.19%
